From the supplement of paper PMC10307832

How the values were obtained:
Test in all cases: relative viability (nuclei count vs DMSO), 5 days (fraction); higher = more cells survive
GW-2580 + Navitoclax = compound: COC1=CC=C(C=C1)COC2=C(C=C(C=C2)CC3=CN=C(N=C3N)N)OC [GW-2580] + CC1(C)CCC(c2ccc(Cl)cc2)=C(CN2CCN(c3ccc(C(=O)NS(=O)(=O)c4ccc(N[C@H](CCN5CCOCC5)CSc5ccccc5)c(S(=O)(=O)C(F)(F)F)c4)cc3)CC2)C1 [Navitoclax] (partner 0.5 µM)
Summary of the method: (§1)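 A single step with final 0.05% Triton X-100, 1% formaldehyde and 1 ug/ml Hoechst fixed the cells and stained nuclei 5 days after treatment. Lung cancer cell lines in 1536-well plates had been treated by pin tool the day after seeding with one drug alone or a fixed anchor-drug dose plus five library-drug doses (not always all listed) in √10 steps, and nuclei were counted on 4× images. Relative viability is the ratio of nuclei in treated wells to nuclei in vehicle wells, taken as the median of duplicate plates.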

GW-2580 + Linsitinib = compound: COC1=CC=C(C=C1)COC2=C(C=C(C=C2)CC3=CN=C(N=C3N)N)OC [GW-2580] + C[C@]1(O)C[C@@H](c2nc(-c3ccc4ccc(-c5ccccc5)nc4c3)c3c(N)nccn32)C1 [Linsitinib] (partner 1 µM)
Summary of the method: as §1

Fedratinib + Phenformin = compound: Cc1cnc(Nc2ccc(OCCN3CCCC3)cc2)nc1Nc1cccc(S(=O)(=O)NC(C)(C)C)c1 [Fedratinib] + N=C(N)NC(=N)NCCc1ccccc1 [Phenformin] (partner 250 µM)
Summary of the method: as §1

GW-2580 + Trametinib = compound: COC1=CC=C(C=C1)COC2=C(C=C(C=C2)CC3=CN=C(N=C3N)N)OC [GW-2580] + CC(=O)Nc1cccc(-n2c(=O)n(C3CC3)c(=O)c3c(Nc4ccc(I)cc4F)n(C)c(=O)c(C)c32)c1 [Trametinib] (partner 0.02 µM)
Summary of the method: as §1

GW-2580 + Palbociclib = compound: COC1=CC=C(C=C1)COC2=C(C=C(C=C2)CC3=CN=C(N=C3N)N)OC [GW-2580] + CC(=O)c1c(C)c2cnc(Nc3ccc(N4CCNCC4)cn3)nc2n(C2CCCC2)c1=O [Palbociclib] (partner 0.5 µM)
Summary of the method: as §1

EBC-1
relative viability (GW-2580 + Navitoclax; first compound 0.08 µM): 0.418
relative viability (GW-2580 + Navitoclax; first compound 0.8 µM): 0.37
relative viability (GW-2580 + Navitoclax; first compound 2.53 µM): 0.369
relative viability (GW-2580 + Navitoclax; first compound 8 µM): 0.37
relative viability (GW-2580 + Linsitinib; first compound 0.08 µM): 1.27
relative viability (GW-2580 + Linsitinib; first compound 0.8 µM): 0.991
relative viability (GW-2580 + Linsitinib; first compound 2.53 µM): 0.871
relative viability (GW-2580 + Linsitinib; first compound 8 µM): 0.743

EKVX
relative viability (GW-2580 + Navitoclax; first compound 0.08 µM): 0.977
relative viability (GW-2580 + Navitoclax; first compound 0.8 µM): 1.03
relative viability (GW-2580 + Navitoclax; first compound 2.53 µM): 0.732
relative viability (GW-2580 + Navitoclax; first compound 8 µM): 0.925
relative viability (Fedratinib + Phenformin; first compound 0.1 µM): 0.251
relative viability (Fedratinib + Phenformin; first compound 0.3162 µM): 0.265
relative viability (Fedratinib + Phenformin; first compound 1 µM): 0.246
relative viability (GW-2580 + Linsitinib; first compound 0.08 µM): 0.983
relative viability (GW-2580 + Linsitinib; first compound 0.8 µM): 1.18
relative viability (GW-2580 + Linsitinib; first compound 2.53 µM): 0.884
relative viability (GW-2580 + Linsitinib; first compound 8 µM): 1.04
relative viability (GW-2580 + Trametinib; first compound 0.08 µM): 0.337
relative viability (GW-2580 + Trametinib; first compound 0.8 µM): 0.474
relative viability (GW-2580 + Trametinib; first compound 2.53 µM): 0.461
relative viability (GW-2580 + Trametinib; first compound 8 µM): 0.345
relative viability (GW-2580 + Palbociclib; first compound 0.08 µM): 0.341
relative viability (GW-2580 + Palbociclib; first compound 0.8 µM): 0.392
relative viability (GW-2580 + Palbociclib; first compound 2.53 µM): 0.675
relative viability (GW-2580 + Palbociclib; first compound 8 µM): 0.327

EMC-BAC-2
relative viability (GW-2580 + Navitoclax; first compound 0.08 µM): 1.18
relative viability (GW-2580 + Navitoclax; first compound 0.8 µM): 1.39
relative viability (GW-2580 + Navitoclax; first compound 2.53 µM): 1.07
relative viability (GW-2580 + Navitoclax; first compound 8 µM): 1.2
relative viability (Fedratinib + Phenformin; first compound 0.1 µM): 0.404
relative viability (Fedratinib + Phenformin; first compound 0.3162 µM): 0.523
relative viability (Fedratinib + Phenformin; first compound 1 µM): 0.421
relative viability (GW-2580 + Linsitinib; first compound 0.08 µM): 0.839
relative viability (GW-2580 + Linsitinib; first compound 0.8 µM): 0.876
relative viability (GW-2580 + Linsitinib; first compound 2.53 µM): 0.727
relative viability (GW-2580 + Linsitinib; first compound 8 µM): 0.875
relative viability (GW-2580 + Trametinib; first compound 0.08 µM): 0.805
relative viability (GW-2580 + Trametinib; first compound 0.8 µM): 0.988
relative viability (GW-2580 + Trametinib; first compound 8 µM): 0.856
relative viability (GW-2580 + Palbociclib; first compound 0.08 µM): 0.536
relative viability (GW-2580 + Palbociclib; first compound 0.8 µM): 0.545
relative viability (GW-2580 + Palbociclib; first compound 8 µM): 0.493

EPLC-272H
relative viability (GW-2580 + Navitoclax; first compound 0.08 µM): 1.18
relative viability (GW-2580 + Navitoclax; first compound 0.8 µM): 1.08
relative viability (GW-2580 + Navitoclax; first compound 2.53 µM): 1.11
relative viability (GW-2580 + Navitoclax; first compound 8 µM): 1.11
relative viability (Fedratinib + Phenformin; first compound 0.1 µM): 0.3
relative viability (Fedratinib + Phenformin; first compound 0.3162 µM): 0.32
relative viability (Fedratinib + Phenformin; first compound 1 µM): 0.173
relative viability (GW-2580 + Linsitinib; first compound 0.08 µM): 1.05
relative viability (GW-2580 + Linsitinib; first compound 0.8 µM): 1.38
relative viability (GW-2580 + Linsitinib; first compound 2.53 µM): 1.24
relative viability (GW-2580 + Linsitinib; first compound 8 µM): 1.14
relative viability (GW-2580 + Trametinib; first compound 0.08 µM): 0.281
relative viability (GW-2580 + Trametinib; first compound 0.8 µM): 0.273
relative viability (GW-2580 + Trametinib; first compound 8 µM): 0.32
relative viability (GW-2580 + Palbociclib; first compound 0.08 µM): 0.317
relative viability (GW-2580 + Palbociclib; first compound 0.8 µM): 0.337
relative viability (GW-2580 + Palbociclib; first compound 8 µM): 0.313

H3255
relative viability (GW-2580 + Navitoclax; first compound 0.08 µM): 0.5
relative viability (GW-2580 + Navitoclax; first compound 0.8 µM): 0.633
relative viability (GW-2580 + Navitoclax; first compound 2.53 µM): 0.4
relative viability (GW-2580 + Navitoclax; first compound 8 µM): 0.452
relative viability (Fedratinib + Phenformin; first compound 0.1 µM): 0.377
relative viability (Fedratinib + Phenformin; first compound 0.3162 µM): 0.362
relative viability (Fedratinib + Phenformin; first compound 1 µM): 0.418
relative viability (GW-2580 + Linsitinib; first compound 0.08 µM): 0.98
relative viability (GW-2580 + Linsitinib; first compound 0.8 µM): 1.03
relative viability (GW-2580 + Linsitinib; first compound 2.53 µM): 1.08
relative viability (GW-2580 + Linsitinib; first compound 8 µM): 0.796
relative viability (GW-2580 + Trametinib; first compound 0.08 µM): 0.512
relative viability (GW-2580 + Trametinib; first compound 0.8 µM): 0.627
relative viability (GW-2580 + Trametinib; first compound 2.53 µM): 0.44
relative viability (GW-2580 + Trametinib; first compound 8 µM): 0.553
relative viability (GW-2580 + Palbociclib; first compound 0.08 µM): 0.308
relative viability (GW-2580 + Palbociclib; first compound 0.8 µM): 0.3
relative viability (GW-2580 + Palbociclib; first compound 2.53 µM): 0.317
relative viability (GW-2580 + Palbociclib; first compound 8 µM): 0.279

HARA
relative viability (GW-2580 + Navitoclax; first compound 0.08 µM): 1.15
relative viability (GW-2580 + Navitoclax; first compound 0.8 µM): 1.18
relative viability (GW-2580 + Navitoclax; first compound 2.53 µM): 1.28
relative viability (GW-2580 + Navitoclax; first compound 8 µM): 0.896
relative viability (Fedratinib + Phenformin; first compound 0.1 µM): 0.364
relative viability (Fedratinib + Phenformin; first compound 0.3162 µM): 0.448
relative viability (Fedratinib + Phenformin; first compound 1 µM): 0.411
relative viability (GW-2580 + Linsitinib; first compound 0.08 µM): 1.09
relative viability (GW-2580 + Linsitinib; first compound 0.8 µM): 1.06
relative viability (GW-2580 + Linsitinib; first compound 2.53 µM): 1.08
relative viability (GW-2580 + Linsitinib; first compound 8 µM): 0.845
relative viability (GW-2580 + Trametinib; first compound 0.08 µM): 0.753
relative viability (GW-2580 + Trametinib; first compound 0.8 µM): 0.714
relative viability (GW-2580 + Trametinib; first compound 2.53 µM): 0.59
relative viability (GW-2580 + Trametinib; first compound 8 µM): 0.274
relative viability (GW-2580 + Palbociclib; first compound 0.08 µM): 0.238
relative viability (GW-2580 + Palbociclib; first compound 0.8 µM): 0.24
relative viability (GW-2580 + Palbociclib; first compound 2.53 µM): 0.265
relative viability (GW-2580 + Palbociclib; first compound 8 µM): 0.291

HCC-15
relative viability (GW-2580 + Navitoclax; first compound 0.08 µM): 0.751
relative viability (GW-2580 + Navitoclax; first compound 0.8 µM): 0.79
relative viability (GW-2580 + Navitoclax; first compound 2.53 µM): 0.656
relative viability (GW-2580 + Navitoclax; first compound 8 µM): 0.712
relative viability (Fedratinib + Phenformin; first compound 0.1 µM): 0.43
relative viability (Fedratinib + Phenformin; first compound 0.3162 µM): 0.464
relative viability (Fedratinib + Phenformin; first compound 1 µM): 0.399
relative viability (GW-2580 + Linsitinib; first compound 0.08 µM): 0.989
relative viability (GW-2580 + Linsitinib; first compound 0.8 µM): 1.02
relative viability (GW-2580 + Linsitinib; first compound 2.53 µM): 0.834
relative viability (GW-2580 + Linsitinib; first compound 8 µM): 0.785
relative viability (GW-2580 + Trametinib; first compound 0.08 µM): 0.393
relative viability (GW-2580 + Trametinib; first compound 0.8 µM): 0.412
relative viability (GW-2580 + Trametinib; first compound 2.53 µM): 0.337
relative viability (GW-2580 + Trametinib; first compound 8 µM): 0.307
relative viability (GW-2580 + Palbociclib; first compound 0.08 µM): 0.82
relative viability (GW-2580 + Palbociclib; first compound 0.8 µM): 0.814
relative viability (GW-2580 + Palbociclib; first compound 2.53 µM): 0.706
relative viability (GW-2580 + Palbociclib; first compound 8 µM): 0.56

HCC-44
relative viability (GW-2580 + Navitoclax; first compound 0.08 µM): 1.09
relative viability (GW-2580 + Navitoclax; first compound 0.8 µM): 1.03
relative viability (GW-2580 + Navitoclax; first compound 2.53 µM): 0.97
relative viability (GW-2580 + Navitoclax; first compound 8 µM): 0.897
relative viability (Fedratinib + Phenformin; first compound 0.1 µM): 0.123
relative viability (Fedratinib + Phenformin; first compound 0.3162 µM): 0.293
relative viability (Fedratinib + Phenformin; first compound 1 µM): 0.163
relative viability (GW-2580 + Linsitinib; first compound 0.08 µM): 0.736
relative viability (GW-2580 + Linsitinib; first compound 0.8 µM): 0.759
relative viability (GW-2580 + Linsitinib; first compound 2.53 µM): 0.628
relative viability (GW-2580 + Linsitinib; first compound 8 µM): 0.687
relative viability (GW-2580 + Trametinib; first compound 0.08 µM): 1.04
relative viability (GW-2580 + Trametinib; first compound 0.8 µM): 1.06
relative viability (GW-2580 + Trametinib; first compound 2.53 µM): 0.986
relative viability (GW-2580 + Trametinib; first compound 8 µM): 0.959
relative viability (GW-2580 + Palbociclib; first compound 0.08 µM): 0.98
relative viability (GW-2580 + Palbociclib; first compound 0.8 µM): 1.02
relative viability (GW-2580 + Palbociclib; first compound 2.53 µM): 0.961
relative viability (GW-2580 + Palbociclib; first compound 8 µM): 0.967

HCC-78
relative viability (GW-2580 + Navitoclax; first compound 0.08 µM): 0.879
relative viability (GW-2580 + Navitoclax; first compound 0.8 µM): 1.07
relative viability (GW-2580 + Navitoclax; first compound 2.53 µM): 0.631
relative viability (GW-2580 + Navitoclax; first compound 8 µM): 0.801
relative viability (Fedratinib + Phenformin; first compound 0.1 µM): 0.698
relative viability (Fedratinib + Phenformin; first compound 0.3162 µM): 0.703
relative viability (Fedratinib + Phenformin; first compound 1 µM): 0.572
relative viability (GW-2580 + Linsitinib; first compound 0.08 µM): 0.541
relative viability (GW-2580 + Linsitinib; first compound 0.8 µM): 0.574
relative viability (GW-2580 + Linsitinib; first compound 2.53 µM): 0.371
relative viability (GW-2580 + Linsitinib; first compound 8 µM): 0.486
relative viability (GW-2580 + Trametinib; first compound 0.08 µM): 0.838
relative viability (GW-2580 + Trametinib; first compound 0.8 µM): 0.844
relative viability (GW-2580 + Trametinib; first compound 2.53 µM): 0.644
relative viability (GW-2580 + Trametinib; first compound 8 µM): 0.768
relative viability (GW-2580 + Palbociclib; first compound 0.08 µM): 0.459
relative viability (GW-2580 + Palbociclib; first compound 0.8 µM): 0.522
relative viability (GW-2580 + Palbociclib; first compound 8 µM): 0.5
